Measurements as given in ChEMBL document CHEMBL1134073 (Bioorg Med Chem Lett, 2001).
pEC50, pKi: −log10 of the molar value.

What was measured:
MT4 = test: Antiviral activity against HIV in presence of 50% human serum in MT-4 cell was determined; type: functional, cell-based
[1] = biological target: Human immunodeficiency virus type 1 protease (Human immunodeficiency virus 1, UniProt Q72874); test: Inhibitory activity against HIV protease

SMILES | pEC50 (MT4) | pKi [1]
Cc1cccc(C)c1OCC(=O)N[C@@H](Cc1ccccc1)[C@@H](O)C[C@H](Cc1ccccc1)NC(=O)[C@H](C(C)C)N1CCC(O)NC1=O (stereo not given in full) | 5.64 | 11.92
Cc1cccc(C)c1OCC(=O)N[C@@H](Cc1ccccc1)[C@@H](O)C[C@H](Cc1ccccc1)NC(=O)[C@H](C(C)C)N1CCC(=O)NC1=O | 5.85 | 12.15
Cc1cccc(C)c1OCC(=O)N[C@@H](Cc1ccccc1)[C@@H](O)C[C@H](Cc1ccccc1)NC(=O)[C@H](C(C)C)N1CCCNC1=O [LOPINAVIR] | 6.98 | –
